Laboratory results as given in PubChem BioAssay AID330 (DTP/NCI, 2004).
“And” between values parts separate entries of the source, which are not always exact repeats. Equal values may be shown once. Toxic doses and inconclusive results are not listed. How the source made its calls: active means survival T/C of 150% or more; inactive means T/C below 125% in these data. Peptide text beside a SMILES is read from it. * marks the point of attachment. Boc = CC(C)(C)OC(=O)*

System: P388 leukemia ip, CD2F1 mice, survival T/C
Test: NCI In Vivo Anticancer Drug Screen. Data for tumor model P388 Leukemia (intraperitoneal) in CD2F1 (CDF1) mice
Conditions: endpoint: median survival time, higher = longer survival
Procedure: The antitumor activity of compounds was measured in mice bearing transplantable tumors. Survival or tumor size were measured and the results are expressed as the measurement made in the treated group (T) divided by the measurement made in the vehicle treated control group (C). The tumor model used in this assay is P388 Leukemia (intraperitoneal) in CD2F1 (CDF1) mice

[1] = dose: 100.0 mg/kg/injection, schedule: Q04DX003 (ip), vehicle: saline with Tween-80
[2] = dose: 200.0 mg/kg/injection, schedule: Q04DX003 (ip), vehicle: saline with Tween-80
[3] = dose: 400.0 mg/kg/injection, schedule: Q04DX003 (ip), vehicle: saline with Tween-80
[4] = dose: 50.0 mg/kg/injection, schedule: Q01DX005 (ip), vehicle: Klucel (hydroxypropylcellulose) (HPC)
[5] = dose: 100.0 mg/kg/injection, schedule: Q01DX005 (ip), vehicle: Klucel (hydroxypropylcellulose) (HPC)
[6] = dose: 200.0 mg/kg/injection, schedule: Q01DX005 (ip), vehicle: Klucel (hydroxypropylcellulose) (HPC)
[7] = dose: 60.0 mg/kg/injection, schedule: Q01DX005 (ip), vehicle: saline with Tween-80
[8] = dose: 120.0 mg/kg/injection, schedule: Q01DX005 (ip), vehicle: saline with Tween-80
[9] = dose: 240.0 mg/kg/injection, schedule: Q01DX005 (ip), vehicle: saline with Tween-80
[10] = dose: 50.0 mg/kg/injection, schedule: Q01DX005 (ip), vehicle: saline with Tween-80
[11] = dose: 100.0 mg/kg/injection, schedule: Q01DX005 (ip), vehicle: saline with Tween-80
[12] = dose: 200.0 mg/kg/injection, schedule: Q01DX005 (ip), vehicle: saline with Tween-80
[13] = dose: 30.0 mg/kg/injection, schedule: Q01DX005 (ip), vehicle: saline with Tween-80
[14] = dose: 50.0 mg/kg/injection, schedule: Q01DX009 (ip), vehicle: Klucel (hydroxypropylcellulose) (HPC)
[15] = dose: 12.5 mg/kg/injection, schedule: Q01DX009 (ip), vehicle: saline with Tween-80
[16] = dose: 25.0 mg/kg/injection, schedule: Q01DX009 (ip), vehicle: saline with Tween-80
[17] = dose: 50.0 mg/kg/injection, schedule: Q01DX009 (ip), vehicle: saline with Tween-80
[18] = dose: 100.0 mg/kg/injection, schedule: Q04DX002 (ip), vehicle: saline with Tween-80
[19] = dose: 200.0 mg/kg/injection, schedule: Q04DX002 (ip), vehicle: saline with Tween-80

Measured: T/C

Cc1ccc2ccccc2c1N(CC(=O)O)S(=O)(=O)c1ccccc1
inactive: dose: 100.0 mg/kg/injection, schedule: Q01DX009 (ip), vehicle: saline with Tween-80 100 % of control | [1] 100 % of control | dose: 200.0 mg/kg/injection, schedule: Q01DX009 (ip), vehicle: saline with Tween-80 110 % of control | [2] 100 % of control | dose: 400.0 mg/kg/injection, schedule: Q01DX009 (ip), vehicle: saline with Tween-80 120 % of control | [3] 109 % of control

Cn1cnc([N+](=O)[O-])c1N1CCN(c2ccccc2)CC1
inactive: dose: 100.0 mg/kg/injection, schedule: Q01DX001 (ip), vehicle: saline with Tween-80 97 % of control | dose: 200.0 mg/kg/injection, schedule: Q01DX001 (ip), vehicle: saline with Tween-80 93 % of control | dose: 400.0 mg/kg/injection, schedule: Q01DX001 (ip), vehicle: saline with Tween-80 94 % of control

CC(C)C12CCC3(CCC4C(C)(C(=O)O)CCCC4(C)C3C1)C(CN)C2 (stereo unspecified)
inactive: dose: 25.0 mg/kg/injection, schedule: Q01DX005 (ip), vehicle: Klucel (hydroxypropylcellulose) (HPC) 101 % of control | [4] 106 % of control | [5] 99 % of control | [6] 100 % of control

COc1ccc(C(O)C2CC(=O)NN=C2C)cc1OC (stereo unspecified)
inactive: [7] 100 % of control | [8] 100 % of control | [9] 99 % of control

COC(=O)[C@H]1[C@H]2C[C@@H]3c4[nH]c5cc(OC)ccc5c4CCN3C[C@H]2C[C@@H](OC(=O)CC(C)=O)[C@@H]1OC
inactive: [10] 95 % of control | [11] 91 % of control | [12] 88 % of control

CNC(=O)OCc1nn(-c2ccc(OC)cc2)c(C)c1COC(=O)NC
inactive: dose: 12.5 mg/kg/injection, schedule: Q01DX009 (ip), vehicle: distilled water + Tween-80 92 % of control | dose: 25.0 mg/kg/injection, schedule: Q01DX009 (ip), vehicle: distilled water + Tween-80 90 % of control | dose: 50.0 mg/kg/injection, schedule: Q01DX009 (ip), vehicle: distilled water + Tween-80 90 % of control | dose: 100.0 mg/kg/injection, schedule: Q01DX009 (ip), vehicle: distilled water + Tween-80 90 % of control | dose: 200.0 mg/kg/injection, schedule: Q01DX009 (ip), vehicle: distilled water + Tween-80 87 % of control

O=C(NS(=O)(=O)Cl)Oc1ccc(Cl)cc1C(=O)Oc1ccc(Cl)cc1
inactive: dose: 60.0 mg/kg/injection, schedule: Q01DX005 (ip), vehicle: Klucel (hydroxypropylcellulose) (HPC) 90 % of control | dose: 120.0 mg/kg/injection, schedule: Q01DX005 (ip), vehicle: Klucel (hydroxypropylcellulose) (HPC) 93 % of control | dose: 240.0 mg/kg/injection, schedule: Q01DX005 (ip), vehicle: Klucel (hydroxypropylcellulose) (HPC) 86 % of control

CCOC(=O)C(CCC(=O)O)NC(=O)C(CCSC)NC(=O)OC(C)(C)C (stereo not drawn) (Boc-Met-Glu-OEt; configuration not given here)
inactive: [4] 102 % of control | [5] 102 % of control | [6] 97 % of control

COc1ccc(-c2csc(NC(=O)Nc3nc(-c4ccc(OC)cc4)cs3)n2)cc1
inactive: dose: 15.0 mg/kg/injection, schedule: Q01DX005 (ip), vehicle: saline with Tween-80 97 % of control | [13] 100 % of control | [7] 87 % of control and 91 % of control

N#CC(C#N)=C(O)/C(=C/c1ccc(Cl)c(Cl)c1)NC(=O)c1ccccc1
inactive: dose: 50.0 mg/kg/injection, schedule: Q01DX005 (ip), vehicle: saline 88 % of control | dose: 100.0 mg/kg/injection, schedule: Q01DX005 (ip), vehicle: saline 88 % of control | dose: 200.0 mg/kg/injection, schedule: Q01DX005 (ip), vehicle: saline 104 % of control

O=C(O)C1CCC(=O)N1C(=O)OCc1ccccc1 (stereo unspecified)
inactive: [1] 95 % of control | [2] 90 % of control | [3] 90 % of control

C=CCCn1ccnc1[N+](=O)[O-]
inactive: dose: 12.5 mg/kg/injection, schedule: Q01DX009 (ip), vehicle: water 94 % of control | dose: 25.0 mg/kg/injection, schedule: Q01DX009 (ip), vehicle: water 93 % of control | dose: 50.0 mg/kg/injection, schedule: Q01DX009 (ip), vehicle: water 100 % of control

CS(=O)(=O)c1ccc(/C(=N/N)c2ccccc2)cc1
inactive: dose: 12.5 mg/kg/injection, schedule: Q01DX009 (ip), vehicle: Klucel (hydroxypropylcellulose) (HPC) 103 % of control | dose: 25.0 mg/kg/injection, schedule: Q01DX009 (ip), vehicle: Klucel (hydroxypropylcellulose) (HPC) 102 % of control | [14] 101 % of control and 93 % of control

[Br][Pt+2][Br].[NH-]C(c1ccccc1)C([NH-])c1ccccc1 (stereo unspecified)
inactive: dose: 12.5 mg/kg/injection, schedule: Q04DX002 (ip), vehicle: saline with Tween-80 112 % of control

COc1ccc(CCNC(=O)C2CCCOC2C(Cl)Cl)cc1OC (stereo unspecified)
inactive: [10] 97 % of control | [11] 101 % of control | [12] 93 % of control

CCC(=O)C1C(=O)CC(=O)C(C)C1c1ccccc1OC (stereo unspecified)
inactive: [10] 92 % of control | [11] 90 % of control | [12] 87 % of control

O=CNc1ncc([N+](=O)[O-])s1
inactive: [15] 95 % of control | [16] 90 % of control | [17] 100 % of control and 102 % of control

CCOC(=O)/C(C#N)=C/C=C1\C=CC=CN1C
inactive: [15] 95 % of control | [16] 86 % of control | [17] 90 % of control

C1CCC(C2CCCC[N-]2)[N-]C1.C1CCC(C2CCCC[N-]2)[N-]C1.[Cl][Co][Cl] (stereo unspecified)
inactive: dose: 50.0 mg/kg/injection, schedule: Q01DX009 (ip), vehicle: saline 100 % of control | dose: 100.0 mg/kg/injection, schedule: Q01DX009 (ip), vehicle: saline 109 % of control

c1ccc(-[n+]2ccc(-c3cc[n+](-c4ccccc4)cc3)cc2)cc1
inactive: dose: 100.0 mg/kg/injection, schedule: Q04DX002 (ip), vehicle: Klucel (hydroxypropylcellulose) (HPC) 97 % of control

CNC(=N)c1ccc(NC(=N)c2ccc(NC(=N)c3ccc(NC(=O)Nc4ccc(C(=N)Nc5ccc(C(=N)Nc6ccc(C(=N)NC)cc6)cc5)cc4)cc3)cc2)cc1
inactive: dose: 1.78 mg/kg/injection, schedule: Q04DX003 (ip), vehicle: saline with Tween-80 108 % of control | dose: 2.66 mg/kg/injection, schedule: Q04DX003 (ip), vehicle: saline with Tween-80 108 % of control | dose: 4.0 mg/kg/injection, schedule: Q04DX003 (ip), vehicle: saline with Tween-80 116 % of control

CCCCCCCCCCCCOC1C=C(C)C(=O)O1 (stereo unspecified)
inactive: [18] 100 % of control | [19] 101 % of control | dose: 400.0 mg/kg/injection, schedule: Q04DX002 (ip), vehicle: saline with Tween-80 100 % of control

CC(C)(C)c1ccc(C(=O)Nc2ccc(Cl)cc2Oc2ccccc2)cc1
inactive: [14] 93 % of control | dose: 100.0 mg/kg/injection, schedule: Q01DX009 (ip), vehicle: Klucel (hydroxypropylcellulose) (HPC) 97 % of control | dose: 200.0 mg/kg/injection, schedule: Q01DX009 (ip), vehicle: Klucel (hydroxypropylcellulose) (HPC) 86 % of control

O=C(O)CCN1C(=O)CCC1=O
inactive: [1] 100 % of control | [2] 95 % of control | [3] 91 % of control

CC(C)(C)NC1=NCCNC(c2ccccc2)=C1
inactive: dose: 6.25 mg/kg/injection, schedule: Q01DX005 (ip), vehicle: saline 98 % of control | dose: 12.5 mg/kg/injection, schedule: Q01DX005 (ip), vehicle: saline 100 % of control | dose: 25.0 mg/kg/injection, schedule: Q01DX005 (ip), vehicle: saline 92 % of control

CCN(CC)OC(=O)/C=C/c1ccccc1
inactive: [13] 95 % of control | [7] 98 % of control and 93 % of control | [8] 86 % of control

CC/S(=N\S(=O)(=O)c1ccc(C)cc1)c1cccc[n+]1[O-] (stereo unspecified)
inactive: [7] 100 % of control | [8] 110 % of control | [9] 100 % of control

CCCCc1ccc(-c2nn[nH]n2)nc1
inactive: dose: 25.0 mg/kg/injection, schedule: Q04DX002 (ip), vehicle: saline with Tween-80 101 % of control | dose: 50.0 mg/kg/injection, schedule: Q04DX002 (ip), vehicle: saline with Tween-80 100 % of control and 102 % of control | [18] 100 % of control and 102 % of control and 104 % of control | [19] 105 % of control and 123 % of control and 95 % of control
